Source: article PMC3391587 (Journal of Nuclear Medicine, 2012)

Assay: HPLC radiometabolite analysis of arterial plasma after [^18F]DPA-714 injection
Type: in vivo
Settings: rat arterial plasma, mean ± SD

## CCN(CC)C(=O)Cc1c(-c2ccc(OCC[18F])cc2)nn2c(C)cc(C)nc12 [[^18F]DPA-714, N,N-diethyl-2-(2-(4-(2-(^18F)-fluoroethoxy)phenyl)-5,7-dimethylpyrazolo[1,5-a]pyrimidin-3-yl)acetamide]
P.I. time 12 (min), N=7
  % [^18F]DPA-714 (parent) in plasma: 68 ± 7.4%
P.I. time 30 (min), N=7
  % [^18F]DPA-714 (parent) in plasma: 44 ± 8.9%
P.I. time 60 (min), N=7
  % [^18F]DPA-714 (parent) in plasma: 27 ± 6.2%
P.I. time 90 (min), N=5
  % [^18F]DPA-714 (parent) in plasma: 22 ± 17.8%
